Assay results as given in patent publication US11226337B2, “Chemoproteomic profiling of protein electrophilic and oxidative post-translational modifications” (Zenagem, LLC, priority 2017, dated 2022).

Columns and labels:
Experiment in all cases: SILAC RP-ABPP
Format in all cases: cell-based
[1] = target: T1, P4HA1 Prolyl 4hydroxylase subunit alpha1 (P13674) (Homo sapiens, UniProt P13674); settings: SILAC H/L, MDA-MB-231
T1 construct: In Situ Labelling of Cells with Hydrazine Probes for MS Experiments; endogenous in cells
T1 sequence (P13674 18-534): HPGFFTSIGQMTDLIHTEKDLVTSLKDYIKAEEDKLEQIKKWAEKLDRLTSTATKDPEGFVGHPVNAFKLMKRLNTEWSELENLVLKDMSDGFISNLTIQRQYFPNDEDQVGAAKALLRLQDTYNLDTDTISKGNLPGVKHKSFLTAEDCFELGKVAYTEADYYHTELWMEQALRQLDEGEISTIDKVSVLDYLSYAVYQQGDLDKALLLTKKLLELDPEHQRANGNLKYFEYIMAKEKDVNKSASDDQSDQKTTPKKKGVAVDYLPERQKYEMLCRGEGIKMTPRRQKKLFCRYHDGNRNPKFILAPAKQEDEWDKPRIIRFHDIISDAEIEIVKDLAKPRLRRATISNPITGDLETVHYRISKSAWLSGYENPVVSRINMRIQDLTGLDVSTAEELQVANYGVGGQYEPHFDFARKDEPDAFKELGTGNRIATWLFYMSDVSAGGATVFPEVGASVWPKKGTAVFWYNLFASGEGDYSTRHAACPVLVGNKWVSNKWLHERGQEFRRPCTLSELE
T1 sequence (P07237 18-508 partner): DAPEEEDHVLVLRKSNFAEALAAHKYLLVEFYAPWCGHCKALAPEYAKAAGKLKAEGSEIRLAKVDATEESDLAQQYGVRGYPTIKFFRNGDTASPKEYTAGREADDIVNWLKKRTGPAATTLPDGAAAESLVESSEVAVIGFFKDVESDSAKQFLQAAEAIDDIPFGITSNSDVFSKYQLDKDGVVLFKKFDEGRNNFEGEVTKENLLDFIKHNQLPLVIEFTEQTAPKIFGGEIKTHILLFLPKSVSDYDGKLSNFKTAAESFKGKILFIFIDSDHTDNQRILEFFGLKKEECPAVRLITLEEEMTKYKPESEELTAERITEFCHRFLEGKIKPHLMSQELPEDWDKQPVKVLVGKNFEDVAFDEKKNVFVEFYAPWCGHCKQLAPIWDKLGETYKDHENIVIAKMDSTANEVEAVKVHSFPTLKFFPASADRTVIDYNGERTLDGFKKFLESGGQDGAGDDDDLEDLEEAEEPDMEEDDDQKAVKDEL

[2] = target: T2, RARS2 Probable arginine tRNA ligase (Q5T160) (Homo sapiens, UniProt Q5T160); settings: SILAC H/L
T2 construct: shared by both the endogenous and recombinant forms of these proteins; endogenous in cells; host or cells: HEK293T and MDA-MB-231
T2 sequence (Q5T160 17-578): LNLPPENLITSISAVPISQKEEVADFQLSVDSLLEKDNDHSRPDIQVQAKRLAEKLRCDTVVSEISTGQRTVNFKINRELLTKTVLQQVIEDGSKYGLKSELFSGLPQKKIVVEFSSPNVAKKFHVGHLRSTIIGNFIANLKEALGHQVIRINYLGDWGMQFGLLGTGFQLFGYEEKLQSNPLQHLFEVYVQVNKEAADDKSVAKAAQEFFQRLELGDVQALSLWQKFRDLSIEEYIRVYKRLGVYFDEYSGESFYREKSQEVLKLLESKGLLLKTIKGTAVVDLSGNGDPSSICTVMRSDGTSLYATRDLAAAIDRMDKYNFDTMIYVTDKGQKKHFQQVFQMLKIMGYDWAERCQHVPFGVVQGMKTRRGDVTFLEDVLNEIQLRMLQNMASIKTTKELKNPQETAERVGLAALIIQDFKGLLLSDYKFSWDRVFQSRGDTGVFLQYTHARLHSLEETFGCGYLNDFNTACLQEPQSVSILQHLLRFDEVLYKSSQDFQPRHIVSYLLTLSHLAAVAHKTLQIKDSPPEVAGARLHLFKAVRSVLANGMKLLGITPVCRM

[3] = target: T3, TPP1 Tripeptidylpeptidase 1 (O14773) (Homo sapiens, UniProt O14773); settings: SILAC H/L, MDA-MB-231
T3 construct: In Situ Labelling of Cells with Hydrazine Probes for MS Experiments; endogenous in cells; host or cells: HEK293T and MDA-MB-231
T3 sequence (O14773 196-563): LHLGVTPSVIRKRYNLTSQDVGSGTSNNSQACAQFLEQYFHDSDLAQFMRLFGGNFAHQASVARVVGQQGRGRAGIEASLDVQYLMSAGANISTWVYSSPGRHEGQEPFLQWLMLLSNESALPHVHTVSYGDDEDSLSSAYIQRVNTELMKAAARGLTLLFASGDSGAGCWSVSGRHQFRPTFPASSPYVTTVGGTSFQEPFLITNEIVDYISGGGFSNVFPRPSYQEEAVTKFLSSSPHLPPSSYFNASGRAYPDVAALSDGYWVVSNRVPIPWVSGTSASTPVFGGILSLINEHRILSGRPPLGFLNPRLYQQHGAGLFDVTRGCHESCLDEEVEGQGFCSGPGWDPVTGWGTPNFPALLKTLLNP

enrichment ratioavg ([1]; probe 2 1 mM 0.5 h vs probe 4)	competition ratioavg ([1]; probe 2 vs probe 2+10x probe 4)	competition ratioavg ([2]; probe 2 vs probe 2+10x probe 4, cell line not given)	enrichment ratioavg ([3]; probe 2 1 mM 0.5 h vs probe 4)	competition ratioavg ([3]; probe 2 vs probe 2+10x probe 4)	SMILES	enrichment ratioavg ([1]; probe 1 3 mM 0.5 h vs probe 3)	competition ratioavg ([1]; probe 1 vs probe 1+10x probe 3)	enrichment ratioavg ([2]; probe 1 3 mM 0.5 h vs probe 3, HEK293T)	competition ratioavg ([2]; probe 1 vs probe 1+10x probe 3, HEK293T)	enrichment ratioavg ([3]; probe 1 3 mM 0.5 h vs probe 3)	competition ratioavg ([3]; probe 1 vs probe 1+10x probe 3)
–	–	–	–	–	C#CCNN.Cl [probe 1, prop-2-yn-1-ylhydrazine hydrochloride]	15	2	16	4	15	3
8	3	3	18	4	C#CCCNC(=O)c1ccc(NN)cc1.Cl [probe 2, N-(but-3-yn-1-yl)-4-hydrazinylbenzamide hydrochloride]	–	–	–	–	–	–
